Results published in US7807202B2, “Compositions for treatment of viral-induced skin lesions and methods of using same” (priority 2003, dated 2010).

Key:
Molluscum contagiosum = settings: in vivo; cited from earlier work
common warts = assay: Case treatments of common warts on the hands by topical application (Examples 10-11); type: in vivo, human; settings: Example 11, child, 15%
Source text: A child presented with common verrucae on the dorsum of both hands involving the metacarpal-phalangeal joints for over 3 years. […] After 12 weeks, all warty lesions were gone. Twice a week the warts were gently scrubbed with a stiff nylon bristle brush before application of the tea tree oil emulsion to help remove the dead outer keratinized skin.
A child presented with common warts affecting the palms of both hands resistant to treatment. […] Twice weekly gentle scrubbing with a stiff nylon bristle brush before application of the emulsion to help remove the dead outer keratinized skin was performed.

Nc1nc2c(ncn2COCCO)c(=O)[nH]1 [acyclovir]
effect on lesions caused by Molluscum contagiosum (Molluscum contagiosum): no effect

O=C(O)c1ccccc1O [Salicyclic acid]
outcome of earlier conventional treatment of common warts (common warts): the warts multiplied and spread
outcome of earlier conventional treatment of common warts (common warts; listed as salicylic acid): failed to eradicate the viral lesions
